ChEMBL document CHEMBL4334533, “Design, synthesis, and validation of novel nitrogen-based chalcone analogs against triple negative breast cancer” (Eur J Med Chem, 2020)
Calls of active or inactive are those of the source. The calls are words filed in the database; no cut-off is given here.

How the values were obtained:
[1] = system: MDA-MB-231; experiment: Antimigratory activity in human MDA-MB-231 cells assessed as wound diameter at 5 uM measured after 24 hrs by microscopic analysis; assay type: functional, cell-based
[2] = system: MDA-MB-231; experiment: Antimigratory activity in human MDA-MB-231 cells assessed as inhibition of cell motility after 24 hrs by microscopic analysis; assay type: functional, cell-based; conditions: MDA-MB-231, 24 h
[3] = system: MDA-MB-231; experiment: Up regulation of pan-cadherin level in human MDA-MB-231 cells up to 10 uM by Western blot analysis; assay type: functional, cell-based
[4] = Cytotoxicity against E6/E7 immortalized human HNME cells assessed as inhibition of cell growth measured after 48 hrs by microplate reader analysis; assay type: cell-based; conditions: read-out: LD50
[5] = system: MDA-MB-231; experiment: Growth inhibition in human MDA-MB-231 cells at 10 uM after 48 hrs by MTT assay; assay type: functional, cell-based
[6] = system: MCF7; experiment: Growth inhibition in human MCF7 cells at 10 uM after 48 hrs by MTT assay; assay type: functional, cell-based
[7] = system: MDA-MB-231; experiment: Induction of morphological changes in human MDA-MB-231 cells assessed as mesenchymal-epithelial transition at 10 uM by inverted microscopic analysis; assay type: functional, cell-based
[8] = system: MDA-MB-468; experiment: Induction of morphological changes in human MDA-MB-468 cells assessed as mesenchymal-epithelial transition at 10 uM by inverted microscopic analysis; assay type: functional, cell-based
[9] = system: MCF7; experiment: Induction of morphological changes in human MCF7 cells assessed as mesenchymal-epithelial transition at 10 uM by inverted microscopic analysis; assay type: functional, cell-based
[10] = system: MDA-MB-231; experiment: Antimigratory activity in human MDA-MB-231 cells assessed as wound diameter measured after 24 hrs by microscopic analysis (reference value: 29.5 +/- 1.95%); assay type: functional
[11] = system: MDA-MB-231; experiment: Antiproliferative activity against human MDA-MB-231 cells assessed as inhibition of cell growth measured after 48 hrs by microplate reader analysis; assay type: functional, cell-based; conditions: MDA-MB-231, 48 h
[12] = system: MDA-MB-468; experiment: Antiproliferative activity against human MDA-MB-468 cells assessed as inhibition of cell growth measured after 48 hrs by microplate reader analysis; assay type: functional, cell-based; conditions: MDA-MB-468, 48 h
[13] = system: MCF7; experiment: Antiproliferative activity against human MCF7 cells assessed as inhibition of cell growth measured after 48 hrs by microplate reader analysis; assay type: functional, cell-based; conditions: MCF7, 48 h
[14] = Selectivity index, ratio of LD50 for E6/E7 immortalized human HNME cells to IC50 for human MDA-MB-231 cells
[15] = Selectivity index, ratio of LD50 for E6/E7 immortalized human HNME cells to IC50 for human MDA-MB-468 cells
[16] = Selectivity index, ratio of LD50 for E6/E7 immortalized human HNME cells to IC50 for human MCF7 cells
[17] = system: MDA-MB-468; experiment: Induction of apoptosis in human MDA-MB-468 cells assessed as necrotic cells at 8 uM measured after 48 hrs by AnnexinV/7-AAD staining based flow cytometric analysis (reference value: 0.51%); assay type: functional
[18] = system: MDA-MB-468; experiment: Induction of apoptosis in human MDA-MB-468 cells assessed as viable cells at 8 uM measured after 24 hrs by AnnexinV/7-AAD staining based flow cytometric analysis (reference value: 94.1%); assay type: functional; conditions: MDA-MB-468, 24 h, read-out: Activity
[19] = system: MDA-MB-468; experiment: Induction of apoptosis in human MDA-MB-468 cells assessed as early apoptotic cells at 8 uM measured after 24 hrs by AnnexinV/7-AAD staining based flow cytometric analysis (reference value: 3.45%); assay type: functional
[20] = system: MDA-MB-468; experiment: Induction of apoptosis in human MDA-MB-468 cells assessed as late apoptotic cells at 8 uM measured after 24 hrs by AnnexinV/7-AAD staining based flow cytometric analysis (reference value: 1.86%); assay type: functional
[21] = system: MDA-MB-468; experiment: Induction of apoptosis in human MDA-MB-468 cells assessed as necrotic cells at 8 uM measured after 24 hrs by AnnexinV/7-AAD staining based flow cytometric analysis (reference value: 0.62%); assay type: functional
[22] = system: MDA-MB-468; experiment: Induction of apoptosis in human MDA-MB-468 cells assessed as viable cells at 8 uM measured after 48 hrs by AnnexinV/7-AAD staining based flow cytometric analysis (reference value: 92.5%); assay type: functional; conditions: MDA-MB-468, 48 h, read-out: Activity
[23] = system: MDA-MB-468; experiment: Induction of apoptosis in human MDA-MB-468 cells assessed as early apoptotic cells at 8 uM measured after 48 hrs by AnnexinV/7-AAD staining based flow cytometric analysis (reference value: 4.15%); assay type: functional
[24] = system: MDA-MB-468; experiment: Induction of apoptosis in human MDA-MB-468 cells assessed as late apoptotic cells at 8 uM measured after 48 hrs by AnnexinV/7-AAD staining based flow cytometric analysis (reference value: 2.83%); assay type: functional
[25] = system: MDA-MB-468; experiment: Induction of apoptosis in human MDA-MB-468 cells assessed as increase in BAX/Bcl2 expression ratio upto 10 uM measured after 48 hrs by western blot analysis; assay type: functional, cell-based
[26] = system: MCF7; experiment: Induction of apoptosis in human MCF7 cells assessed as increase in BAX/Bcl2 expression ratio upto 10 uM measured after 48 hrs by western blot analysis; assay type: functional, cell-based
[27] = system: MDA-MB-231; experiment: Cell cycle arrest in human MDA-MB-231 cells assessed as accumulation at G2/M phase at 5 uM measured after 48 hrs by propidium iodide staining-based flow cytometric analysis relative to control; assay type: functional
[28] = system: MDA-MB-468; experiment: Cell cycle arrest in human MDA-MB-468 cells assessed as accumulation at G2/M phase at 5 uM measured after 48 hrs by propidium iodide staining-based flow cytometric analysis relative to control; assay type: functional
[29] = system: MDA-MB-231; experiment: Antiinvasive activity in human MDA-MB-231 cells assessed as reduction in 10% FBS-induced cell invasion at 5 uM by crystal violet staining based matrigel assay relative to control; assay type: functional; set-up: scale not given: the % may be the effect or the level left
[30] = system: MCF7; experiment: Antimigratory activity in human MCF7 cells assessed as inhibition of cell motility after 24 hrs by microscopic analysis; assay type: functional, cell-based; conditions: MCF7, 24 h
[31] = system: MDA-MB-231; experiment: Up regulation of E-cadherin level in human MDA-MB-231 cells up to 10 uM by Western blot analysis; assay type: functional, cell-based
[32] = system: MDA-MB-231; experiment: Down regulation of FAK level in human MDA-MB-231 cells up to 10 uM by Western blot analysis; assay type: functional, cell-based
[33] = system: MCF7; experiment: Up regulation of pan-cadherin level in human MCF7 cells up to 10 uM by Western blot analysis; assay type: functional, cell-based
[34] = system: MCF7; experiment: Up regulation of E-cadherin level in human MCF7 cells up to 10 uM by Western blot analysis; assay type: functional, cell-based
[35] = system: Chorioallantoic membrane; experiment: Antiangiogenic activity in Leghorn chicken fertilized egg chorioallantoic membrane assessed as reduction in number of blood vessels at 4 ug measured after 4 days by microscopic analysis relative to control; assay type: functional, tissue-based; set-up: scale not given: the % may be the effect or the level left; conditions: Gallus gallus
[36] = system: MDA-MB-231; experiment: Inhibition of anchorage-independent colony formation in human MDA-MB-231 cells at 5 uM measured upto 21 days by soft agar colony formation assay; assay type: functional, cell-based
[37] = system: MDA-MB-468; experiment: Inhibition of anchorage-independent colony formation in human MDA-MB-468 cells at 5 uM measured upto 21 days by soft agar colony formation assay; assay type: functional, cell-based
[38] = system: MCF7; experiment: Inhibition of anchorage-independent colony formation in human MCF7 cells at 5 uM measured upto 21 days by soft agar colony formation assay; assay type: functional, cell-based
[39] = Toxicity in athymic nude mouse xenografted with human MDA-MB-231 cells assessed as change in food intake at 10 mg/kg, ip administered measured for 14 days; assay type: organism-based; conditions: in vivo, 336 h
[40] = Toxicity in athymic nude mouse xenografted with human MDA-MB-231 cells assessed as change in body weight at 10 mg/kg, ip administered for 14 days; assay type: organism-based; conditions: in vivo, 336 h
[41] = Toxicity in athymic nude mouse xenografted with human MDA-MB-231 cells assessed as behavioral change at 10 mg/kg, ip administered for 14 days; assay type: organism-based; conditions: in vivo, 336 h
[42] = system: MDA-MB-231; experiment: Antitumor activity against human MDA-MB-231 cells xenografted in athymic nude mouse assessed as the inhibition of tumor growth at 10 mg/kg, ip dosed 3 times per week for 45 days relative to control; assay type: functional; conditions: MDA-MB-231, ip, 1080 h
[43] = system: MDA-MB-231; experiment: Antitumor activity against human MDA-MB-231 cells xenografted in athymic nude mouse assessed as the reduction in tumor weight at 10 mg/kg, ip dosed 3 times per week for 45 days (reference value: 1.58 +/- 0.283 g); assay type: functional
[44] = system: MDA-MB-231; experiment: Inhibition of tumor growth in human MDA-MB-231 cells xenografted in nude mouse; assay type: functional
[45] = system: MDA-MB-231; experiment: Antitumor activity against human MDA-MB-231 cells xenografted in athymic nude mouse assessed as time delay in tumor growth at 10 mg/kg, ip dosed 5 times per week preincubated for 15 days measured after 30 days relative to control; assay type: functional, organism-based
[46] = Toxicity in athymic nude mouse xenografted with human MDA-MB-231 cells assessed as effect on survival rate at 10 mg/kg, ip dosed 5 times per week preincubated for 15 days measured after 30 days; assay type: organism-based; conditions: in vivo, 720 h
[47] = system: MDA-MB-468; experiment: Antiinvasive activity in human MDA-MB-468 cells assessed as reduction in 10% FBS-induced cell invasion at 5 uM by crystal violet staining based matrigel assay relative to control; assay type: functional
[48] = system: MCF7; experiment: Antiinvasive activity in human MCF7 cells assessed as reduction in 10% FBS-induced cell invasion at 5 uM by crystal violet staining based matrigel assay relative to control; assay type: functional
[49] = system: MDA-MB-231; experiment: Antitumor activity against human MDA-MB-231 cells xenografted in athymic nude mouse assessed as the reduction in tumor volume at 10 mg/kg, ip dosed 3 times per week for 45 days (reference value: 1350 mm3); assay type: functional

For `O=C(/C=C/c1ccc(N2CCCC2)cc1)c1ccc2c(c1)OCO2`, the Activity [1] was “Active” and the IC50 [2] was 5.71 µM.
With `COc1cccc(C(=O)/C=C/c2ccc(N(CCCl)CCCl)cc2)c1` the Activity [3] was “Active”, the CC50 at 48 h [4] was 21.3 µM and the “growth inhibition (GI)” value [5] was “Active”. The “growth inhibition (GI)” value [6] was “Active”, the Activity [7] was “Active” and the Activity [8] was “Active”. For the same compound, the Activity [9] was “Active”, the Activity [1] was “Active” and the “inhibition (INH)” value [10] was 67.89%. The IC50 [11] was 8 µM, the IC50 [12] was 7.3 µM and the IC50 [13] was 6.43 µM. The “Ratio LD50/IC50” value [14] was 2.66, the “Ratio LD50/IC50” value [15] was 2.92 and the “Ratio LD50/IC50” value [16] was 3.31. It also gave an Activity [17] of 3.63%, a viability at 8 µM [18] of 88.2% and an Activity [19] of 9.04%. The Activity [20] was 2.13%, the Activity [21] was 0.61% and the viability at 8 µM [22] was 57.3%. The Activity [23] was 28%, the Activity [24] was 11.1% and the Activity [25] was “Active”. The Activity [26] was “Active”, the Activity [27] was 47.27% and the Activity [28] was 66.45%. The Activity [29] was 80%, the IC50 [2] was 3 µM and the IC50 [30] was 2.44 µM. For the same compound, the Activity [31] was “Active”, the Activity [32] was “Active” and the Activity [33] was “Active”. The Activity [34] was “Active”, the Activity [35] was 60.2% and the inhibition [36] was “Active”. The “colony formation inhibition (active/inactive)” value [37] was “Active”, the “colony formation inhibition (activity call)” value [38] was “Active” and the Activity [39] was “Non-Toxic”. For the same compound, the Activity [40] was “Non-Toxic”, the Activity [41] was “Non-Toxic” and the inhibition in vivo at 10 mg/kg [42] was 46.4%. For the same compound, the Activity [43] was 0.88 g, the “inhibition (INH)” value [44] was 57% and the Activity [45] was “Active”. For the same compound, the Activity [46] was “Non-Toxic”, the Activity [47] was “Active” and the Activity [48] was “Active”. The Activity [49] was 487.26 mm3.
For `CC(=O)O[C@H]1C(=O)[C@@]2(C)[C@H]([C@H](OC(=O)c3ccccc3)[C@]3(O)C[C@H](OC(=O)[C@H](O)[C@@H](NC(=O)c4ccccc4)c4ccccc4)C(C)=C1C3(C)C)[C@]1(OC(C)=O)CO[C@@H]1C[C@@H]2O` [PACLITAXEL], the Activity [1] was “Active”, the IC50 [2] was 2.01 µM and the inhibition [36] was “Active”. For the same compound, the “colony formation inhibition (active/inactive)” value [37] was “Active” and the “colony formation inhibition (activity call)” value [38] was “Active”.
For `COc1cc2c(c(OC)c1OC)-c1ccc(OC)c(=O)cc1[C@@H](NC(C)=O)CC2`, the Activity [1] was “Active”, the inhibition [36] was “Active” and the “colony formation inhibition (active/inactive)” value [37] was “Active”. The inhibition [38] was “Active”.
